# Measurements: ChEMBL document CHEMBL3046666, “Design, synthesis, and biological evaluation of benzofuran derivatives as ET receptor antagonists” (Med Chem Res, 2013)
# Calls of active or inactive are those of the source. The rule behind the calls is not given here. Square brackets hold non-standard residues; d marks the D form. Peptide text beside a SMILES is read from it.
# What was measured:
# [1] = molecular target: T1, Endothelin-1 receptor (Rattus norvegicus) (UniProt P26684); test: Antagonist activity at ETA receptor in Sprague-Dawley Rattus norvegicus (rat) thoracic aortic ring assessed as inhibition of ET1-induced thoracic aortic ring contraction at 10 uM after 30 min relative to control
# T1 sequence (whole entry): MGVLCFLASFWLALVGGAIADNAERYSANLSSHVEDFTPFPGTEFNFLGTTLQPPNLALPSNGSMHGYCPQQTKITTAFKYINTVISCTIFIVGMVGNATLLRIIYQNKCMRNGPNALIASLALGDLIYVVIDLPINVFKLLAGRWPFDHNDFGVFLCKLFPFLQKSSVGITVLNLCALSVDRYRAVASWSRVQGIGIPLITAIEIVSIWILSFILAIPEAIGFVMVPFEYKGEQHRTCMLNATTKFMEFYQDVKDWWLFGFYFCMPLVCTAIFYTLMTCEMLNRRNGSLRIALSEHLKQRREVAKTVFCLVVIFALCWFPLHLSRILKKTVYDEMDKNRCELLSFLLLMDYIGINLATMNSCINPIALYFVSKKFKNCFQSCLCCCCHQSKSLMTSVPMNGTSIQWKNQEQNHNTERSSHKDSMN
# Endothelin-1 receptor [2] = molecular target: T2, Endothelin-1 receptor (Rattus norvegicus, UniProt P26684); test: Displacement of [125I]ET-1 from ETA receptor in Sprague-Dawley Rattus norvegicus (rat) myocardium after 1 hr
# T2 sequence (P26684 whole entry): T1 sequence (whole entry)
# Rattus norvegicus [3] = species on record: Rattus norvegicus; test: Selectivity Rattus norvegicus (rat)io of IC50 for ETB receptor in Sprague-Dawley Rattus norvegicus (rat) myocardium to IC50 for ETA receptor in Sprague-Dawley Rattus norvegicus (rat) myocardium; type: tissue-based
# [4] = molecular target: T3, Endothelin receptor type B (Rattus norvegicus, UniProt P21451); test: Displacement of [125I]ET-1 from ETB receptor in Sprague-Dawley Rattus norvegicus (rat) myocardium after 1 hr
# T3 sequence (P21451 whole entry): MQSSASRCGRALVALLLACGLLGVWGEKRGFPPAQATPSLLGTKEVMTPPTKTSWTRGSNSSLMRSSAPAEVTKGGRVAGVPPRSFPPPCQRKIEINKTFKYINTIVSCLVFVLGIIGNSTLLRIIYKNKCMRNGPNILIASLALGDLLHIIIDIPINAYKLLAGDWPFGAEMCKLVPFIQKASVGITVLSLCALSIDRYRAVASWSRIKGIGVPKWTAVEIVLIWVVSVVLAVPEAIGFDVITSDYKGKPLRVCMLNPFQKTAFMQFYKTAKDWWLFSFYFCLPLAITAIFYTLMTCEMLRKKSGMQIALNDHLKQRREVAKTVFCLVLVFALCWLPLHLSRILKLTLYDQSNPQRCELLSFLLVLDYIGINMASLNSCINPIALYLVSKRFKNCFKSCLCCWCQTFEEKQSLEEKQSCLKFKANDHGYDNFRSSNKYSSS
# Rattus norvegicus [5] = test: Antihypertensive activity in hypoxic pulmonary arterial Sprague-Dawley Rattus norvegicus (rat) model assessed as decrease in hypoxia-induced central vein pressure at 10 mg/kg, po administered for 28 days measured on day 29 by hemodynamic analyzer relative to untreated control; type: functional, organism-based; parameters: dose 10 mg/kg; conditions: Artery
# Rattus norvegicus [6] = test: Antihypertensive activity in hypoxic pulmonary arterial Sprague-Dawley Rattus norvegicus (rat) model assessed as decrease in hypoxia-induced right ventricular systolic pressure at 10 mg/kg, po administered for 28 days measured on day 29 by hemodynamic analyzer relative to untreated control; type: functional, organism-based; parameters: dose 10 mg/kg; conditions: Heart right ventricle
# Endothelin-1 receptor [7] = molecular target: T4, Endothelin-1 receptor (Homo sapiens, UniProt P25101); test: Antagonist activity at Homo sapiens (human) ETA receptor
# T4 sequence (P25101 whole entry): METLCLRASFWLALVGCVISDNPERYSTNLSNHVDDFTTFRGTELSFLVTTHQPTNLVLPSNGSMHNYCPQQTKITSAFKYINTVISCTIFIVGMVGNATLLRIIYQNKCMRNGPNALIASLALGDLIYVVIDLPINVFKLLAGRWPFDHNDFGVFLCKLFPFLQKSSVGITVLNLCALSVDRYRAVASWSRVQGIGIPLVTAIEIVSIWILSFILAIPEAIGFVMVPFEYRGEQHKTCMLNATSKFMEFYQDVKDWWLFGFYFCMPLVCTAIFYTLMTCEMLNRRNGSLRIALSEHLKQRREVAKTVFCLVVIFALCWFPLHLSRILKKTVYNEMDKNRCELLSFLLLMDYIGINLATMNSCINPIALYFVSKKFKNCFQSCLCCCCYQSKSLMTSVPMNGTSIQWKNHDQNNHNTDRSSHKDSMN
# Endothelin-1 receptor [8] = molecular target: T4, Endothelin-1 receptor; test: Antagonist activity at ETA receptor (unknown origin)
# Rattus norvegicus [9] = test: Antihypertensive activity in po dosed hypoxic pulmonary arterial Sprague-Dawley Rattus norvegicus (rat) model assessed as decrease in hypoxia-induced central vein pressure administered for 28 days measured on day 29 by hemodynamic analyzer relative to untreated control; type: functional, organism-based; conditions: Artery
# Rattus norvegicus [10] = test: Antihypertensive activity in po dosed hypoxic pulmonary arterial Sprague-Dawley Rattus norvegicus (rat) model assessed as decrease in hypoxia-induced right ventricular systolic pressure administered for 28 days measured on day 29 by hemodynamic analyzer relative to untreated control; type: functional, organism-based; conditions: Heart right ventricle
Structure (SMILES),inhibition [1] [%],also measured
Cc1c(C(=O)O)oc2cccc(OCc3ccc4nsnc4c3)c12,82.2,IC50 (Endothelin-1 receptor [2]): 23 nM; Ratio IC50 (Rattus norvegicus [3]): 40; IC50 [4]: 930 nM
Cc1c(C(=O)O)oc2cccc(OC(CCC(=O)O)c3ccccc3)c12 (stereo not drawn),44,–
COC(=O)C1=C(C)NC(C)=C(C(=O)OC)C1c1ccccc1[N+](=O)[O-],–,Activity (Rattus norvegicus [5]): Active; Activity (Rattus norvegicus [6]): Active
CCCCOc1cccc2oc(C(=O)O)c(C)c12,56.7,–
CCCOc1cccc2oc(C(=O)O)c(C)c12,69.7,–
CC(C)C[C@@H]1NC(=O)[C@@H](C(C)C)NC(=O)[C@@H]2CCCN2C(=O)[C@@H](CC(=O)O)NC(=O)[C@@H](Cc2c[nH]c3ccccc23)NC1=O [BQ-123] (cyclo(L[dW][dD]P[dV])),68.1,IC50 (Endothelin-1 receptor [2]): 28 nM; IC50 (Endothelin-1 receptor [7]): 37 nM
Cc1c(C(=O)O)oc2cccc(OC/C=C/c3ccccc3)c12,50,–
COc1cccc2oc(C(=O)O)c(C)c12,–,IC50 (Endothelin-1 receptor [8]): 11000 nM
Cc1c(C(=O)O)oc2cccc(OCc3ccc4nonc4c3)c12,70,IC50 (Endothelin-1 receptor [2]): 39 nM; Ratio IC50 (Rattus norvegicus [3]): 27; IC50 [4]: 1070 nM
CCOc1cccc2oc(C(=O)O)c(C)c12,61,–
Cc1c(C(=O)O)oc2cccc(OCCOc3cccc(Cl)c3)c12,21.7,–
Cc1ccc(OCCOc2cccc3oc(C(=O)O)c(C)c23)cc1,40.8,–
Cc1c(C(=O)O)oc2cccc(OCCN3CCCC3)c12,34.1,Activity (Rattus norvegicus [9]): Dose-dependent effect; Activity (Rattus norvegicus [10]): Dose-dependent effect
CCCCCOc1cccc2oc(C(=O)O)c(C)c12,46.8,–
Cc1c(C(=O)O)oc2cccc(OC(C(=O)O)c3ccccc3)c12 (stereo not drawn),29,–
Cc1c(C(=O)O)oc2cccc(OCc3ccccc3)c12,40.7,IC50 (Endothelin-1 receptor [8]): 3800 nM
